This is an account of results in PubChem BioAssay AID330 (DTP/NCI, 2004).

Values joined by “and” are separate entries in the source; they are usually repeats but may differ in a detail not shown here. Identical values can stand only once. Toxic doses and inconclusive results are not listed.

The assay has as its system P388 leukemia ip, CD2F1 mice, survival T/C. Kind of assay: NCI In Vivo Anticancer Drug Screen. Data for tumor model P388 Leukemia (intraperitoneal) in CD2F1 (CDF1) mice. To be noted: endpoint: median survival time, higher = longer survival. The procedure, abridged: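 Mice carrying the transplanted tumor received test compound or vehicle. Survival was recorded in each group, and the value is the treated-group measurement divided by that of the vehicle-treated control group.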

[1] abbreviates: dose: 50.0 mg/kg/injection, schedule: Q01DX009 (ip), vehicle: saline with Tween-80.
Where [2] appears, read: dose: 100.0 mg/kg/injection, schedule: Q01DX009 (ip), vehicle: saline with Tween-80.
[3] abbreviates: dose: 200.0 mg/kg/injection, schedule: Q01DX009 (ip), vehicle: saline with Tween-80.
The mark [4] stands for this setting: dose: 50.0 mg/kg/injection, schedule: Q01DX005 (ip), vehicle: saline with Tween-80.
Where [5] appears, read: dose: 25.0 mg/kg/injection, schedule: Q01DX009 (ip), vehicle: saline.
Where [6] appears, read: dose: 50.0 mg/kg/injection, schedule: Q01DX009 (ip), vehicle: saline.

As to `CCOP(=S)(OCC)Oc1ccc([N+](=O)[O-])cc1`, the T/C is 102 % of control (dose: 0.06 mg/kg/injection, schedule: Q01DX009 (ip), vehicle: saline); 106 % of control (dose: 0.12 mg/kg/injection, schedule: Q01DX009 (ip), vehicle: saline); 107 % of control (dose: 0.25 mg/kg/injection, schedule: Q01DX009 (ip), vehicle: saline); 100 % of control (dose: 0.5 mg/kg/injection, schedule: Q01DX009 (ip), vehicle: saline).

As for `CCC1(O)CC2CN(CCc3c([nH]c4ccccc34)C(C(=O)OC)(c3cc4c(cc3OC)N(C)C3C(O)(C(=O)NCCSSCCNC(=O)C5(O)C(O)C6(CC)C=CCN7CCC8(c9cc(C%10(C(=O)OC)CC%11CN(CCc%12c%10[nH]c%10ccccc%12%10)CC(O)(CC)C%11)c(OC)cc9N(C)C58)C76)C(O)C5(CC)C=CCN6CCC43C65)C2)C1` (configuration not stated), the T/C by setting is: (dose: 0.1 mg/kg/injection, schedule: Q01DX009 (ip), vehicle: saline) 166 % of control; (dose: 0.19 mg/kg/injection, schedule: Q04DX003 (ip), vehicle: saline) 151 % of control; (dose: 0.2 mg/kg/injection, schedule: Q01DX009 (ip), vehicle: saline) 202 % of control; (dose: 0.31 mg/kg/injection, schedule: Q04DX003 (ip), vehicle: saline) 170 % of control; (dose: 0.38 mg/kg/injection, schedule: Q04DX003 (ip), vehicle: saline) 183 % of control; (dose: 0.39 mg/kg/injection, schedule: Q04DX003 (ip), vehicle: saline) 186 % of control. Also, the T/C is 227 % of control (dose: 0.4 mg/kg/injection, schedule: Q01DX009 (ip), vehicle: saline); 190 % of control (dose: 0.63 mg/kg/injection, schedule: Q04DX003 (ip), vehicle: saline); 161 % of control (dose: 0.7 mg/kg/injection, schedule: Q04DX003 (ip), vehicle: saline); 209 % of control and 228 % of control (dose: 0.75 mg/kg/injection, schedule: Q04DX003 (ip), vehicle: saline); 212 % of control (dose: 1.0 mg/kg/injection, schedule: Q04DX003 (ip), vehicle: saline); 208 % of control (dose: 1.25 mg/kg/injection, schedule: Q04DX003 (ip), vehicle: saline). Moreover, the T/C (dose: 1.6 mg/kg/injection, schedule: Q04DX003 (ip), vehicle: saline) was 231 % of control; the T/C (dose: 2.4 mg/kg/injection, schedule: Q04DX003 (ip), vehicle: saline) was 119 % of control; the T/C (dose: 2.5 mg/kg/injection, schedule: Q04DX003 (ip), vehicle: saline) was 236 % of control.

As to `O=C1c2ccccc2C(O)(C#Cc2ccccc2)c2cc(Cl)ccc21` (configuration not stated), the T/C is 106 % of control under setting [1], 102 % of control under setting [2] and 90 % of control under setting [3].

As for `CCOc1cccs1`, the T/C (dose: 60.0 mg/kg/injection, schedule: Q01DX005 (ip), vehicle: saline with Tween-80) is 102 % of control and the T/C (dose: 120.0 mg/kg/injection, schedule: Q01DX005 (ip), vehicle: saline with Tween-80) was 100 % of control.

As for `O=C(/C=C\N(c1ccccc1)c1ccccc1)c1ccccc1`, the T/C is 90 % of control under setting [1], 93 % of control under setting [2] and 94 % of control under setting [3].

On to `CCC(c1ccc(OC)cc1)C(NCC(=O)N/N=C1\C[C@@H]2[C@H](CC[C@]3(C)[C@@H](O)CC[C@@H]23)c2ccc(O)cc21)c1ccc(OC)cc1` (some centres not stated), for which the T/C is, setting by setting: (dose: 100.0 mg/kg/injection, schedule: Q01DX001 (ip), vehicle: saline with Tween-80) 100 % of control; (dose: 200.0 mg/kg/injection, schedule: Q01DX001 (ip), vehicle: saline with Tween-80) 99 % of control; (dose: 400.0 mg/kg/injection, schedule: Q01DX001 (ip), vehicle: saline with Tween-80) 99 % of control.

As for `Cn1c[n+](C2OC(CO)C(O)C2O)c2nc(N)[nH]c(=O)c21` (configuration not stated), the T/C reads like this: (dose: 50.0 mg/kg/injection, schedule: Q01DX005 (ip), vehicle: saline) 119 % of control; (dose: 100.0 mg/kg/injection, schedule: Q01DX005 (ip), vehicle: saline) 105 % of control; (dose: 200.0 mg/kg/injection, schedule: Q01DX005 (ip), vehicle: saline) 115 % of control.

On to `COc1ncc(Br)cc1C(=O)NCCc1ccc(S(=O)(=O)NC(=O)NC2CCCCC2)cc1`, for which the T/C is 99 % of control under setting [1] and 92 % of control under setting [2].

Regarding `CC1=Nc2ccccc2NC2(C1)C(C1COC(C)(C)O1)OC1OC(C)(C)OC12` (configuration not stated), the T/C by setting is: under setting [4], 95 % of control; (dose: 100.0 mg/kg/injection, schedule: Q01DX005 (ip), vehicle: saline with Tween-80) 99 % of control; (dose: 200.0 mg/kg/injection, schedule: Q01DX005 (ip), vehicle: saline with Tween-80) 100 % of control.

Consider `ClC(Cl)CN(Cc1ccccc1)c1ncc[nH]1`, for which the T/C was 105 % of control (dose: 6.25 mg/kg/injection, schedule: Q01DX001 (ip), vehicle: saline); 104 % of control (dose: 12.5 mg/kg/injection, schedule: Q01DX001 (ip), vehicle: saline); 105 % of control (dose: 25.0 mg/kg/injection, schedule: Q01DX001 (ip), vehicle: saline).

Regarding `COc1cc2cc(c1Cl)N(C)C(=O)CC(OC(=O)C(C)C)C1(C)OC1C(C)C1CC(O)(NC(=O)O1)C(OC)/C=C/C=C(C)C2` (configuration not stated), the T/C was 114 % of control (dose: 3.1 micrograms/kg/injection, schedule: Q01DX009 (ip), vehicle: saline + alcohol); 119 % of control (dose: 6.2 micrograms/kg/injection, schedule: Q01DX009 (ip), vehicle: saline + alcohol); 115 % of control (dose: 6.25 micrograms/kg/injection, schedule: Q01DX009 (ip), vehicle: saline + alcohol); 106 % of control and 86 % of control (dose: 100.0 micrograms/kg/injection, schedule: Q01DX009 (ip), vehicle: saline + alcohol); 94 % of control (dose: 200.0 micrograms/kg/injection, schedule: Q01DX009 (ip), vehicle: saline + alcohol).

For the compound `O=C(O)Cc1ccc([N+](=O)[O-])cc1[N+](=O)[O-]`, the T/C by setting is: (dose: 12.5 mg/kg/injection, schedule: Q01DX009 (ip), vehicle: saline) 100 % of control; under setting [5], 92 % of control; under setting [6], 100 % of control; (dose: 100.0 mg/kg/injection, schedule: Q01DX009 (ip), vehicle: saline) 91 % of control.

As for `CCC1OC(=O)C1[Si](C)(C)C` (configuration not stated), the T/C is, setting by setting: (dose: 100.0 mg/kg/injection, schedule: Q01DX001 (ip), vehicle: saline) 99 % of control; (dose: 200.0 mg/kg/injection, schedule: Q01DX001 (ip), vehicle: saline) 103 % of control; (dose: 400.0 mg/kg/injection, schedule: Q01DX001 (ip), vehicle: saline) 103 % of control.

For the compound `C=CC(C1=CC(=O)C(OC)=CC1=O)c1ccccc1` (configuration not stated), the T/C (dose: 2.5 mg/kg/injection, schedule: Q01DX009 (ip), vehicle: saline with Tween-80) is 101 % of control; the T/C (dose: 5.0 mg/kg/injection, schedule: Q01DX009 (ip), vehicle: saline with Tween-80) is 103 % of control; the T/C (dose: 10.0 mg/kg/injection, schedule: Q01DX009 (ip), vehicle: saline with Tween-80) was 102 % of control.

Regarding `CN(C(=O)c1cc2c(cc1Br)OCO2)c1ccccc1`, the T/C reads like this: (dose: 25.0 mg/kg/injection, schedule: Q01DX009 (ip), vehicle: other) 100 % of control; (dose: 50.0 mg/kg/injection, schedule: Q01DX009 (ip), vehicle: other) 98 % of control; (dose: 100.0 mg/kg/injection, schedule: Q01DX009 (ip), vehicle: other) 111 % of control.

Consider `O=C(C[n+]1cc2ccccc2cc1/C=N/O)c1ccccc1`, for which the T/C is, setting by setting: (dose: 50.0 mg/kg/injection, schedule: Q01DX009 (ip), vehicle: saline sonified) 100 % of control; (dose: 100.0 mg/kg/injection, schedule: Q01DX009 (ip), vehicle: saline sonified) 100 % of control; (dose: 200.0 mg/kg/injection, schedule: Q01DX009 (ip), vehicle: saline sonified) 86 % of control.

Turning to `CCOC(=O)c1[nH]c(C)nc1/N=N/N(C)C`, the T/C runs as follows: under setting [5], 119 % of control; under setting [6], 116 % of control; (dose: 200.0 mg/kg/injection, schedule: Q01DX009 (ip), vehicle: saline) 116 % of control.

Turning to `CC(=O)C[n+]1ccccc1Cc1ccccc1`, the T/C was 99 % of control (dose: 25.0 mg/kg/injection, schedule: Q01DX005 (ip), vehicle: saline with Tween-80) and 100 % of control under setting [4].
